Earlier results on one molecule are cited in patent US20060166974A1, “Azabenzoxazoles for the treatment of CNS disorders” (Pfizer Inc., priority 2004, published 2006).

Broadly, the half-life is the time in which the quantity being followed falls by half.

For the molecule `O=C1Cc2cc(CCN3CCN(c4nsc5ccccc45)CC3)c(Cl)cc2N1` [Ziprasidone, 5-[2-[4-(1,2-benzisothiazol-3-yl)piperazin-1-yl]ethyl]-6-chloroindolin-2-one], under “in vivo”, the half-life is 6 to 7 h and the protein binding entry is “extensive”. Besides, the Oral bioavailability result (taken with food) was “approximately 60%”.
